From patent publication US20250388589A1, “TRICYCLIC HETEROCYCLIC DERIVATIVES, COMPOSITIONS AND USES THEREOF” (Danatlas Pharmaceuticals Co., Ltd., priority 2022, published 2025) come the findings set out here.

Each structure is given as a SMILES string. A value given as a limit tells only on which side of the number the result lay.

Experiment [1] has as its target hPARG (C-terminal His6-tag) (Homo sapiens (Human), UniProt Q86W56). Nature of the experiment: PARG Enzymatic Activity Assay (HTRF). The following applies: hPARG 65 pM final, biotinylated-NAD ribosylated PARP1 8 nM final. It is filed as biochemical. The procedure, abridged: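 E. coli-expressed enzyme (65 pM final) preincubated 60 min RT with compounds (10-point 4-fold dilution, duplicate) in 50 mM Tris pH 7.4, 3 mM EDTA, 1 mM DTT, 50 mM KCl, 0.01% Tween 20. Biotinylated-NAD ribosylated PARP1 substrate (8 nM final) reacted 10 min RT; Eu-streptavidin/anti-6HIS-XL665 HTRF read 665/620 nm after 60 min. IC50 from 4-parameter Hill fit.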

The test system of the next experiment is Kuramochi cell line. Nature of the experiment: Cell Viability Assay (Cell Titer-Glo, 7 days). It is filed as cell-based. The following applies: 168 h, Kuramochi cells, 7 days incubation, read-out: PARG Cell viability (IC50). The procedure, abridged: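 Kuramochi cells in RPMI with 10% FBS, seeded at 400 cells/well, were treated with a 9-point 3-fold dilution series in duplicate for 7 days at 37 °C, 5% CO2. Viability by CellTiter-Glo luminescence, normalised to DMSO and medium-only controls; IC50 from 4-parameter Hill fit.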

hPARG (C-terminal His6-tag), sequence (Q86W56 whole entry): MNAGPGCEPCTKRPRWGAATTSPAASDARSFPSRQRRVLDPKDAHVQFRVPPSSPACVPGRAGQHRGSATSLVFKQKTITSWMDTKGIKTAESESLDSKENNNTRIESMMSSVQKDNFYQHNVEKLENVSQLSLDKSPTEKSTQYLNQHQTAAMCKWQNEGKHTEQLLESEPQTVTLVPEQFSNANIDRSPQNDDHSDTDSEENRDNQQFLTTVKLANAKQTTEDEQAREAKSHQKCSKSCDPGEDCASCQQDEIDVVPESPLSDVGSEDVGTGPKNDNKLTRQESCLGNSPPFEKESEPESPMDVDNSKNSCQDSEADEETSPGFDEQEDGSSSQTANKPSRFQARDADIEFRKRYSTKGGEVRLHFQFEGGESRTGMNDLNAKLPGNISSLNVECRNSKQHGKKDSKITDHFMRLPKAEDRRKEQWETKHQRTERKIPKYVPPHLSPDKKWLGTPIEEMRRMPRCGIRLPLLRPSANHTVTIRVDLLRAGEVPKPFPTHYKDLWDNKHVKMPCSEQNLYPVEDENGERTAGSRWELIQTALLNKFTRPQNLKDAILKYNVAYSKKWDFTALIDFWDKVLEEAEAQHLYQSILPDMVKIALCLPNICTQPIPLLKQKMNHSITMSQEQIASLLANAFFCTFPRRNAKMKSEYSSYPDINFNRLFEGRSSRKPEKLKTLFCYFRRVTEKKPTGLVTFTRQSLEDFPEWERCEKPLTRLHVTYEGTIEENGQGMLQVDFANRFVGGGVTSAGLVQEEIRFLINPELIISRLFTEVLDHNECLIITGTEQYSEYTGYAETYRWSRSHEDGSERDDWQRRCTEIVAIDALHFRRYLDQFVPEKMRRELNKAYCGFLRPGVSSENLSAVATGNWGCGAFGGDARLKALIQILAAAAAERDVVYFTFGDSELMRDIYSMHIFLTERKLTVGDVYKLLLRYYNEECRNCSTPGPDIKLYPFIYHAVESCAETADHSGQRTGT

For `N#CC1(NS(=O)(=O)c2ccc3c4c(C5CCN(C(=O)[C@H]6CCCN6)CC5)ncnc4n(-c4nnc(C(F)F)s4)c3c2)CC1` [Example 125, (R)-N-(1-cyanocyclopropyl)-9-(5-(difluoromethyl)-1,3,4-thiadiazol-2-yl)-4-(1-prolylpiperidin-4-yl)-9H-pyrimido[4,5-b]indole-7-sulfonamide], the IC50 is < 100 nM in experiment [1] and 100 to 1000 nM with Kuramochi cell line.

On to `CC(C)(N)C(=O)N1CCC(c2ncnc3c2c2ccc(S(=O)(=O)NC4(C#N)CC4)cc2n3-c2nnc(C(F)F)s2)CC1` [Example 126, 4-(1-(2-Amino-2-methylpropanoyl)piperidin-4-yl)-N-(1-cyanocyclopropyl)-9-(5-(difluoromethyl)-1,3,4-thiadiazol-2-yl)-9H-pyrimido[4,5-b]indole-7-sulfonamide], for which the half-inhibitory concentration (IC50) in experiment [1] is < 100 nM; in the experiment on Kuramochi cell line, 100 to 1000 nM.

Consider `C[C@@H](N)C(=O)N1CCC(c2ncnc3c2c2ccc(S(=O)(=O)NC4(C#N)CC4)cc2n3-c2nnc(C(F)F)s2)CC1` [Example 127, 4-(1-(D-Alanyl)piperidin-4-yl)-N-(1-cyanocyclopropyl)-9-(5-(difluoromethyl)-1,3,4-thiadiazol-2-yl)-9H-pyrimido[4,5-b]indole-7-sulfonamide], for which the half-maximal inhibitory concentration (IC50) was < 100 nM in experiment [1] and 100 to 1000 nM with Kuramochi cell line.

For the molecule `C[C@H](N)C(=O)N1CCC(c2ncnc3c2c2ccc(S(=O)(=O)NC4(C#N)CC4)cc2n3-c2nnc(C(F)F)s2)CC1` [Example 128, 4-(1-(L-alanyl)piperidin-4-yl)-N-(1-cyanocyclopropyl)-9-(5-(difluoromethyl)-1,3,4-thiadiazol-2-yl)-9H-pyrimido[4,5-b]indole-7-sulfonamide], the IC50 in experiment [1] was < 100 nM; in the experiment with Kuramochi cell line, 100 to 1000 nM.

For the molecule `N#CC1(NS(=O)(=O)c2ccc3c4c(C5CCN(C(=O)N6CC[C@@H](O)C6)CC5)ncnc4n(-c4nnc(C(F)F)s4)c3c2)CC1` [Example 129, (R)—N-(1-Cyanocyclopropyl)-9-(5-(difluoromethyl)-1,3,4-thiadiazol-2-yl)-4-(1-(3-hydroxypyrrolidine-1-carbonyl)piperidin-4-yl)-9H-pyrimido[4,5-b]indole-7-sulfonamide], the values for the concentration for half-maximal inhibition (IC50) (in experiment [1]; in the experiment with Kuramochi cell line) were < 100 nM and 100 to 1000 nM, respectively.

As for `N#CC1(NS(=O)(=O)c2ccc3c4c(C5CCN(C(=O)N6CC[C@H](O)C6)CC5)ncnc4n(-c4nnc(C(F)F)s4)c3c2)CC1` [Example 130, (S)—N-(1-Cyanocyclopropyl)-9-(5-(difluoromethyl)-1,3,4-thiadiazol-2-yl)-4-(1-(3-hydroxypyrrolidine-1-carbonyl)piperidin-4-yl)-9H-pyrimido[4,5-b]indole-7-sulfonamide], the IC50 in experiment [1] is < 100 nM; with Kuramochi cell line, 100 to 1000 nM.

Consider `CC1(NS(=O)(=O)c2ccc3c4c(C5CCN(C(=O)N6CC[C@H](O)C6)CC5)ncnc4n(-c4nnc(C(F)F)s4)c3c2)CC1` [Example 131, (S)-9-(5-(Difluoromethyl)-1,3,4-thiadiazol-2-yl)-4-(1-(3-hydroxypyrrolidine-1-carbonyl)piperidin-4-yl)-N-(1-methylcyclopropyl)-9H-pyrimido[4,5-b]indole-7-sulfonamide], for which the IC50 (in experiment [1]; in the experiment with Kuramochi cell line) was < 100 nM in each case.

In the case of `CC1(NS(=O)(=O)c2ccc3c4c(C5CCN(C(=O)N6CC[C@@H](O)C6)CC5)ncnc4n(-c4nnc(C(F)F)s4)c3c2)CC1` [Example 132, (R)-9-(5-(Difluoromethyl)-1,3,4-thiadiazol-2-yl)-4-(1-(3-hydroxypyrrolidine-1-carbonyl)piperidin-4-yl)-N-(1-methylcyclopropyl)-9H-pyrimido[4,5-b]indole-7-sulfonamide], the IC50 (in experiment [1]; with Kuramochi cell line) was < 100 nM throughout.

Take `CC1(NS(=O)(=O)c2ccc3c4c(C5CCN(C(=O)N6CCOCC6)CC5)ncnc4n(-c4nnc(C(F)F)s4)c3c2)CC1` [Example 133, 9-(5-(difluoromethyl)-1,3,4-thiadiazol-2-yl)-N-(1-methylcyclopropyl)-4-(1-(morpholine-4-carbonyl)piperidin-4-yl)-9H-pyrimido[4,5-b]indole-7-sulfonamide]: the IC50 (in experiment [1]; with Kuramochi cell line) was < 100 nM throughout.

With `CO[C@H]1CCN(C(=O)N2CCC(c3ncnc4c3c3ccc(S(=O)(=O)NC5(C#N)CC5)cc3n4-c3nnc(C(F)F)s3)CC2)C1` [Example 134, (S)—N-(1-Cyanocyclopropyl)-9-(5-(difluoromethyl)-1,3,4-thiadiazol-2-yl)-4-(1-(3-methoxypyrrolidine-1-carbonyl)piperidin-4-yl)-9H-pyrimido[4,5-b]indole-7-sulfonamide], the IC50 (in experiment [1]; with Kuramochi cell line) was < 100 nM throughout.

`CO[C@@H]1CCN(C(=O)N2CCC(c3ncnc4c3c3ccc(S(=O)(=O)NC5(C#N)CC5)cc3n4-c3nnc(C(F)F)s3)CC2)C1` [Example 135, (R)-N-(1-Cyanocyclo-propyl)-9-(5-(difluoromethyl)-1,3,4-thiadiazol-2-yl)-4-(1-(3-methoxypyrrolidine-1-carbonyl)piperidin-4-yl)-9H-pyrimido [4,5-b]indole-7-sulfonamide]: the concentration for half-maximal inhibition (IC50) (in experiment [1]; in the experiment with Kuramochi cell line) was < 100 nM throughout.

In the case of `CN(C)[C@H]1CCN(C(=O)N2CCC(c3ncnc4c3c3ccc(S(=O)(=O)NC5(C#N)CC5)cc3n4-c3nnc(C(F)F)s3)CC2)C1` [Example 136, (S)-N-(1-Cyanocyclo-propyl)-9-(5-(difluoromethyl)-1,3,4-thiadiazol-2-yl)-4-(1-(3-(dimethylamino)pyrrolidine-1-carbonyl)piperidin-4-yl)-9H-pyrimido [4,5-b]indole-7-sulfonamide], the IC50 (in experiment [1]; with Kuramochi cell line) was < 100 nM in each case.

In the case of `CN(C)[C@@H]1CCN(C(=O)N2CCC(c3ncnc4c3c3ccc(S(=O)(=O)NC5(C#N)CC5)cc3n4-c3nnc(C(F)F)s3)CC2)C1` [Example 137, (R)-N-(1-Cyanocyclo-propyl)-9-(5-(difluoromethyl)-1,3,4-thiadiazol-2-yl)-4-(1-(3-(dimethylamino)pyrrolidine-1-carbonyl)piperidin-4-yl)-9H-pyrimido[4,5-b] indole-7-sulfonamide], the half-maximal inhibitory concentration (IC50) in experiment [1] is < 100 nM; in the experiment with Kuramochi cell line, 100 to 1000 nM.

For `N#CC1(NS(=O)(=O)c2ccc3c4c(C5CCN(C(=O)N6CC(O)C6)CC5)ncnc4n(-c4nnc(C(F)F)s4)c3c2)CC1` [Example 138, N-(1-cyanocyclo-propyl)-9-(5-(difluoromethyl)-1,3,4-thiadiazol-2-yl)-4-(1-(3-hydroxy-azetidine-1-carbonyl)piperidin-4-yl)-9H-pyrimido [4,5-b]indole-7-sulfonamide], the half-maximal inhibitory concentration (IC50) in experiment [1] was < 100 nM; with Kuramochi cell line, 100 to 1000 nM.

On to `N#CC1(NS(=O)(=O)c2ccc3c4c(C5CCN(C(=O)N6CCCO6)CC5)ncnc4n(-c4nnc(C(F)F)s4)c3c2)CC1` [Example 139], for which the concentration for half-maximal inhibition (IC50) (in experiment [1]; in the experiment with Kuramochi cell line) was < 100 nM throughout.

In the case of `N#CC1(NS(=O)(=O)c2ccc3c4c(C5CCN(C(=O)N6CCOCC6)CC5)ncnc4n(-c4nnc(C(F)F)s4)c3c2)CC1` [Example 140, N-(1-cyanocyclo-propyl)-9-(5-(difluoromethyl)-1,3,4-thiadiazol-2-yl)-4-(1-(morpholine-4-carbonyl)piperidin-4-yl)-9H-pyrimido [4,5-b]indole-7-sulfonamide], the IC50 (in experiment [1]; with Kuramochi cell line) was < 100 nM throughout.

For the molecule `CN1CCN(C(=O)N2CCC(c3ncnc4c3c3ccc(S(=O)(=O)NC5(C#N)CC5)cc3n4-c3nnc(C(F)F)s3)CC2)CC1` [Example 141, N-(1-cyanocyclo-propyl)-9-(5-(difluoromethyl)-1,3,4-thiadiazol-2-yl)-4-(1-(4-methylpiperazine-1-carbonyl)piperidin-4-yl)-9H-pyrimido [4,5-b]indole-7-sulfonamide], the values for the concentration for half-maximal inhibition (IC50) (in experiment [1]; in the experiment with Kuramochi cell line) were < 100 nM and 100 to 1000 nM, respectively.

Regarding `CC(O)CN(C)C(=O)N1CCC(c2ncnc3c2c2ccc(S(=O)(=O)NC4(C#N)CC4)cc2n3-c2nnc(C(F)F)s2)CC1` (stereo not drawn) [Example 142, 4-(7-(N-(1-cyanocyclo-propyl)sulfamoyl)-9-(5-(difluoromethyl)-1,3,4-thiadiazol-2-yl)-9H-pyrimido[4,5-b]indol-4-yl)-N-(2-hydroxypropyl)-N-methylpiperidine-1-carboxamide], the half-maximal inhibitory concentration (IC50) (in experiment [1]; in the experiment on Kuramochi cell line) was < 100 nM in each case.

Turning to `CN(CCO)C(=O)N1CCC(c2ncnc3c2c2ccc(S(=O)(=O)NC4(C#N)CC4)cc2n3-c2nnc(C(F)F)s2)CC1` [Example 143, 4-(7-(N-(1-cyanocyclo-propyl)sulfamoyl)-9-(5-(difluoromethyl)-1,3,4-thiadiazol-2-yl)-9H-pyrimido[4,5-b]indol-4-yl)-N-(2-hydroxyethyl)-N-methylpiperidine-1-carboxamide], the half-maximal inhibitory concentration (IC50) in experiment [1] is < 100 nM; in the experiment on Kuramochi cell line, 100 to 1000 nM.

Turning to `COCCN(C)C(=O)N1CCC(c2ncnc3c2c2ccc(S(=O)(=O)NC4(C#N)CC4)cc2n3-c2nnc(C(F)F)s2)CC1` [Example 144, 4-(7-(N-(1-cyanocyclo-propyl)sulfamoyl)-9-(5-(difluoromethyl)-1,3,4-thiadiazol-2-yl)-9H-pyrimido[4,5-b]indol-4-yl)-N-(2-methoxyethyl)-N-methylpiperidine-1-carboxamide], the IC50 (in experiment [1]; in the experiment with Kuramochi cell line) was < 100 nM in each case.

For the molecule `CON(C)C(=O)N1CCC(c2ncnc3c2c2ccc(S(=O)(=O)NC4(C#N)CC4)cc2n3-c2nnc(C(F)F)s2)CC1` [Example 145, 4-(7-(N-(1-Cyanocyclopropyl)sulfamoyl)-9-(5-(difluoromethyl)-1,3,4-thiadiazol-2-yl)-9H-pyrimido[4,5-b]indol-4-yl)-N-methoxy-N-methylpiperidine-1-carboxamide], the 50% inhibitory concentration (IC50) (in experiment [1]; in the experiment with Kuramochi cell line) was < 100 nM throughout.
